{
  "source": "the SangsterLogP compilation",
  "assay": "method code SF-AS, from Rouot, B.; Leclerc, G.; Wermuth, C.; Miesch, F.; Schwartz, J. (1977). Structure-activity relations and problems related to the mechanism of action of clonidine.Journal de Pharmacologie, 8(1)95-106.",
  "data": [
    {"smiles": "Brc1ccc(NC2=NCCN2)cc1", "values": [
      {"measurement": "logP", "value": 1.75}
    ]},
    {"smiles": "Cc1ccc(NC2=NCCN2)c(Cl)c1", "values": [
      {"measurement": "logP", "value": 1.87}
    ]},
    {"smiles": "Oc1cc(Cl)c(NC2=NCCN2)c(Cl)c1", "values": [
      {"measurement": "logP", "value": 1.52}
    ]},
    {"smiles": "Brc1cccc(Br)c1NC1=NCCN1", "values": [
      {"measurement": "logP", "value": 1.73}
    ]},
    {"smiles": "Cc1cccc(Cl)c1NC1=NCCN1", "values": [
      {"measurement": "logP", "value": 1.41}
    ]},
    {"smiles": "Cc1cccc(C)c1NC1=NCCN1", "values": [
      {"measurement": "logP", "value": 1.45}
    ]},
    {"smiles": "Fc1cccc(F)c1N=C1NCCN1", "values": [
      {"measurement": "logP", "value": 1.06}
    ]},
    {"smiles": "c1ccc(NC2=NCCN2)cc1", "values": [
      {"measurement": "logP", "value": 1.01}
    ]},
    {"smiles": "COc1ccc(OC)c(NC2=NCCN2)c1", "values": [
      {"measurement": "logP", "value": 0.97}
    ]},
    {"smiles": "COc1cc(C)ccc1NC1=NCCN1", "values": [
      {"measurement": "logP", "value": 1.64}
    ]},
    {"smiles": "Cc1ccc(Cl)cc1NC1=NCCN1", "values": [
      {"measurement": "logP", "value": 1.8}
    ]},
    {"smiles": "Cc1cc(Cl)ccc1NC1=NCCN1", "values": [
      {"measurement": "logP", "value": 1.77}
    ]},
    {"smiles": "COc1cc(OC)c(NC2=NCCN2)cc1Cl", "values": [
      {"measurement": "logP", "value": 1.38}
    ]},
    {"smiles": "FC(F)(F)c1ccccc1NC1=NCCN1", "values": [
      {"measurement": "logP", "value": 1.42}
    ]},
    {"smiles": "CC(C)c1cccc(C(C)C)c1NC1=NCCN1", "values": [
      {"measurement": "logP", "value": 3.04}
    ]},
    {"smiles": "Clc1ccc(NC2=NCCN2)c(Cl)c1", "values": [
      {"measurement": "logP", "value": 1.96}
    ]}
  ]
}
